Laboratory results from ChEMBL document CHEMBL1921734 (Bioorg Med Chem, 2011).

Tests used:
[1] = target: T1, Steroid 17-alpha-hydroxylase/17,20 lyase (Homo sapiens, UniProt P05093); test: Inhibition of 17,20-lyase activity of human CYP17A1
T1 sequence (P05093 whole entry): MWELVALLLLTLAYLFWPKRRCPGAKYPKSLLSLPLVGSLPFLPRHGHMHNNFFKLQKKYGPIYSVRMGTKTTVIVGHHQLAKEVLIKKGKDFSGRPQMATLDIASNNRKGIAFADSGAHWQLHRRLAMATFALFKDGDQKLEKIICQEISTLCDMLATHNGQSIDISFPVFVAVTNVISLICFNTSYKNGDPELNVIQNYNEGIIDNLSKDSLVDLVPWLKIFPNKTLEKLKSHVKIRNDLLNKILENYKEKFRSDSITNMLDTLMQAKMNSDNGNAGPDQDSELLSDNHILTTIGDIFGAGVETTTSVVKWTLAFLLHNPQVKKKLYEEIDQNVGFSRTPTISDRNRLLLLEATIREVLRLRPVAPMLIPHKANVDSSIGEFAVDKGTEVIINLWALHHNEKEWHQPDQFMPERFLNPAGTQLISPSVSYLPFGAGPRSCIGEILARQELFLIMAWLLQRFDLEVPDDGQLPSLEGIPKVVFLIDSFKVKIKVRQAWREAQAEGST

[2] = target: T2, Cytochrome P450 3A4 (Homo sapiens, UniProt P08684); test: Inhibition of CYP3A4; type: ADME
T2 sequence (P08684 whole entry): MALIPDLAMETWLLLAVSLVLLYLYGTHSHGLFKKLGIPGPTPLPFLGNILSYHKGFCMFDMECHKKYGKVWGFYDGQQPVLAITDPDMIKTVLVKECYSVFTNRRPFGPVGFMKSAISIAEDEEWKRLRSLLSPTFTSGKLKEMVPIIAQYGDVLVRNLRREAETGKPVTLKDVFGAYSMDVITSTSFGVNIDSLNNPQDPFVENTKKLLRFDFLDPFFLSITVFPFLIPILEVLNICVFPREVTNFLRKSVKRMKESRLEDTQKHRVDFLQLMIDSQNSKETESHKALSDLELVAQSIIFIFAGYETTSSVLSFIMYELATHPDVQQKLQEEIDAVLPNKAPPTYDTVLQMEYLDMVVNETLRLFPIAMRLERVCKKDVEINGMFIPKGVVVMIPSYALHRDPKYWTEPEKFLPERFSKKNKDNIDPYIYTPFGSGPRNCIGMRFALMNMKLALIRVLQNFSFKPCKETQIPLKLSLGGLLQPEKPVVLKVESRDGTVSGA

[3] = test system: Cynomolgus monkey; test: Reduction of serum testosterone level in cynomolgus monkey at 1 mg/kg, po after 8 hrs by radioimmunoassay (reference value: 296 +/- 277%); type: functional, Macaca fascicularis; parameters: scale not given: the % may be the effect or the level left
[4] = target: T3, Steroid 17-alpha-hydroxylase/17,20 lyase (Rattus norvegicus, UniProt P11715); test: Inhibition of 17,20-lyase activity of Sprague-Dawley rat testicular microsomal CYP17A1 using [1,2-3H]-17a-hydroxyprogesterone as substrate after 15 mins by TLC analysis; parameters: species or system Testis
T3 sequence (P11715 whole entry): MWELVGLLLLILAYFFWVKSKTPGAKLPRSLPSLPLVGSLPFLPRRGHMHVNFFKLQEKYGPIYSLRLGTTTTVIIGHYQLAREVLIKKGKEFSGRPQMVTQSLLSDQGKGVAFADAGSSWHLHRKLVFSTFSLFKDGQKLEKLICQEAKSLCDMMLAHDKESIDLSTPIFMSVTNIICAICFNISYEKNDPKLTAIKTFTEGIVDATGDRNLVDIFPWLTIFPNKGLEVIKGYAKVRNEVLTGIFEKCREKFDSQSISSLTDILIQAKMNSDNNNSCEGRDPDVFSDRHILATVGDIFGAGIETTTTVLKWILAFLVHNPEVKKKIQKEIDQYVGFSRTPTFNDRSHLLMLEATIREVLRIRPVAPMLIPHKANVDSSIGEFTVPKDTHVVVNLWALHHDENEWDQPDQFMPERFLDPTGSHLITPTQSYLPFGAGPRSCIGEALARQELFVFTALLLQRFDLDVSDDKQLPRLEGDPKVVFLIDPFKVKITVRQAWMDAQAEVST

[5] = Inhibition of Sprague-Dawley rat adrenal gland 11-hydroxylase using [1,2-3H]-hydroxy-11-deoxycorticosterone as substrate after 30 mins by TLC analysis; type: tissue-based
[6] = test system: Cynomolgus monkey; test: Reduction of serum DHEA level in cynomolgus monkey at 1 mg/kg, po after 8 hrs by radioimmunoassay (reference value: 25 +/- 6.2%); type: functional, Macaca fascicularis; parameters: scale not given: the % may be the effect or the level left
[7] = target: T2, Cytochrome P450 3A4; test: Inhibition of recombinant human CYP3A4 assessed as conversion of testosterone into 6-hydroxytestosterone after 30 mins by HPLC analysis; type: ADME
[8] = target: T1, Steroid 17-alpha-hydroxylase/17,20 lyase; test: Inhibition of 17,20-lyase of recombinant human CYP17A1 using [1,2-3H]-17a-hydroxypregnenolone as substrate after 15 mins by TLC analysis
[9] = test system: Cynomolgus monkey; test: Reduction of serum DHEA level in cynomolgus monkey at 1 mg/kg, po after 10 hrs by radioimmunoassay (reference value: 7.2 +/- 0.99%); type: functional, Macaca fascicularis; parameters: scale not given: the % may be the effect or the level left
[10] = target: T4, Cytochrome P450 1A2 (Homo sapiens, UniProt P05177); test: Inhibition of human B-lymphoblastoid cell microsomal CYP1A2 assessed as 7-ethoxyresorufin O-deethylation preincubated for 5 mins with substrate; type: ADME
T4 sequence (P05177 whole entry): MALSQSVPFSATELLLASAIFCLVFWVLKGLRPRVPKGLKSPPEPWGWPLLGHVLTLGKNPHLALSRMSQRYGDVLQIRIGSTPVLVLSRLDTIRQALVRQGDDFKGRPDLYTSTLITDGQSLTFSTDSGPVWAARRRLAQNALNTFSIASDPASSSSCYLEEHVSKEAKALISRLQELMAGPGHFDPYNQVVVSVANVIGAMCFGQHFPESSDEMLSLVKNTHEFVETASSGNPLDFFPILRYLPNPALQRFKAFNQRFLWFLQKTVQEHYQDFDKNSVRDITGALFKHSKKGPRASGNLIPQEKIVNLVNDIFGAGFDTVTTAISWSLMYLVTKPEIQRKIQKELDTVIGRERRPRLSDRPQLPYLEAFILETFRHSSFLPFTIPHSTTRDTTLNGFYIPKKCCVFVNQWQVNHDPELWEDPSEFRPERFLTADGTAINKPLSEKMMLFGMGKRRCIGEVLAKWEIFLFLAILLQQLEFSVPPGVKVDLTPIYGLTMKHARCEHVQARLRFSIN

[11] = test system: Cynomolgus monkey; test: Reduction of serum DHEA level in cynomolgus monkey at 1 mg/kg, po after 5 hrs by radioimmunoassay (reference value: 88.6 +/- 4.4%); type: functional, Macaca fascicularis; parameters: scale not given: the % may be the effect or the level left
[12] = test system: Cynomolgus monkey; test: Reduction of serum DHEA level in cynomolgus monkey at 1 mg/kg, po after 2 hrs by radioimmunoassay (reference value: 97.9 +/- 22.3%); type: functional, Macaca fascicularis; parameters: scale not given: the % may be the effect or the level left
[13] = test system: Cynomolgus monkey; test: Reduction of serum testosterone level in cynomolgus monkey at 1 mg/kg, po after 5 hrs by radioimmunoassay (reference value: 63 +/- 19.2%); type: functional, Macaca fascicularis; parameters: scale not given: the % may be the effect or the level left
[14] = test system: Cynomolgus monkey; test: Reduction of serum testosterone level in cynomolgus monkey at 1 mg/kg, po after 10 hrs by radioimmunoassay (reference value: 269.8 +/- 94.5%); type: functional, Macaca fascicularis; parameters: scale not given: the % may be the effect or the level left
[15] = test system: Cynomolgus monkey; test: Reduction of serum testosterone level in cynomolgus monkey at 1 mg/kg, po after 2 hrs by radioimmunoassay (reference value: 90 +/- 16.6%); type: functional, Macaca fascicularis; parameters: scale not given: the % may be the effect or the level left
[16] = test system: Cynomolgus monkey; test: Reduction of serum DHEA level in cynomolgus monkey at 1 mg/kg, po after 8 hrs by radioimmunoassay (reference value: 54 +/- 25%); type: functional, Macaca fascicularis; parameters: scale not given: the % may be the effect or the level left
[17] = target: T5, Cytochrome P450 2C8 (Homo sapiens, UniProt P10632); test: Inhibition of human B-lymphoblastoid cell microsomal CYP2C8 assessed as Tolbutamide hydroxylation preincubated for 5 mins with substrate; type: ADME
T5 sequence (P10632 whole entry): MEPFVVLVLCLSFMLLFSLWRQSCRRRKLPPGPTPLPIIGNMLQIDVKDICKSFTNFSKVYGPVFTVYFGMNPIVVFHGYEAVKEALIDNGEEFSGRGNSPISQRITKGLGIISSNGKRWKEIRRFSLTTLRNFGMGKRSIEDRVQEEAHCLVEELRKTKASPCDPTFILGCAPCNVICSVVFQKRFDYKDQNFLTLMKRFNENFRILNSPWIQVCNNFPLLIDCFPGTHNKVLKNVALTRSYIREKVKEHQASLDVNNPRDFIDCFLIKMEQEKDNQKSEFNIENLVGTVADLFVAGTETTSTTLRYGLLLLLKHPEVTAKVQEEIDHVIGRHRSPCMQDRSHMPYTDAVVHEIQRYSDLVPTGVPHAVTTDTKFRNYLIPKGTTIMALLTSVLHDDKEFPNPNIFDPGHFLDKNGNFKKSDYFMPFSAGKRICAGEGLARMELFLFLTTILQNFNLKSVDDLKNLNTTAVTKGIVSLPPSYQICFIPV

[18] = test system: Cynomolgus monkey; test: Reduction of serum testosterone level in cynomolgus monkey at 1 mg/kg, po after 8 hrs by radioimmunoassay (reference value: 101 +/- 54%); type: functional, Macaca fascicularis; parameters: scale not given: the % may be the effect or the level left
[19] = target: Cytochrome P450 2D6 (Homo sapiens, UniProt P10635); test: Inhibition of human B-lymphoblastoid cell microsomal CYP2D6 assessed as (+)-bufuralol 1'-hydroxylation preincubated for 5 mins with substrate; type: ADME
Chain of Cytochrome P450 2D6 (P10635 whole entry): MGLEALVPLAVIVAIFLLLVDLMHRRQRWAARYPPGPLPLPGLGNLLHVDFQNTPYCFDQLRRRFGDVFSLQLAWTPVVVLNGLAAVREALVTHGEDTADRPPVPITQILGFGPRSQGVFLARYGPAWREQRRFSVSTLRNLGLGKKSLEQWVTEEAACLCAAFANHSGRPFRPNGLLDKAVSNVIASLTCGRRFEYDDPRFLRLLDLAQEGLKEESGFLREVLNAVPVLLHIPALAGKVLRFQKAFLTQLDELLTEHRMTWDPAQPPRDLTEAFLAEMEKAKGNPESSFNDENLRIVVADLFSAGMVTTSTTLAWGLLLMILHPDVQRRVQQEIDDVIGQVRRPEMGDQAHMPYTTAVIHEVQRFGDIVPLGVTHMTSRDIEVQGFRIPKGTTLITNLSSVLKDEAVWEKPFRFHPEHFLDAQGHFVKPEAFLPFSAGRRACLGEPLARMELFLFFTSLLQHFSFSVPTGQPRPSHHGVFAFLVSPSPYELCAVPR

Compound | IC50 [4] | IC50 [5] | IC50 [7] | IC50 [8] | other results
CNC(=O)c1ccc2cc([C@](O)(c3c[nH]cn3)C(C)C)ccc2c1 | – | – | – | – | IC50 [1]: 5.5 nM; IC50 [2]: 7800 nM
CNC(=O)c1ccc2cc(C(O)(c3c[nH]cn3)C(C)C)ccc2c1 (racemic) | – | > 1000 nM | – | – | –
CNC(=O)c1ccc2cc(C3CCn4cncc43)ccc2c1 (racemic) | 15 nM | 290 nM | < 1000 nM | 13 nM | –
NC(=O)c1ccc2cc(C3(O)CCn4cncc43)ccc2c1 (racemic) | 24 nM | 100 nM | > 10000 nM | 29 nM | –
CCNC(=O)c1ccc2cc(C3(O)CCn4cncc43)ccc2c1 (racemic) | 110 nM | > 1000 nM | > 10000 nM | 190 nM | –
CC(C)NC(=O)c1ccc2cc(C3(O)CCn4cncc43)ccc2c1 (racemic) | 160 nM | > 1000 nM | > 10000 nM | 400 nM | –

Continued, in another order:

IC50 [4] | IC50 [5] | IC50 [7] | IC50 [8] | Compound | other results
180 nM | > 1000 nM | – | – | CNC(=O)c1ccc2cc([C@]3(O)CCn4cncc43)ccc2c1 | Activity [3]: 258%; Activity [6]: 91%
– | > 1000 nM | – | – | CNC(=O)c1ccc2cc(C3(O)CCn4cncc43)ccc2c1 (racemic) | –
110 nM | 520 nM | 3200 nM | 88 nM | CNC(=O)c1ccc2cc(C3(O)c4cncn4CC3(C)C)ccc2c1 (racemic) | –
> 1000 nM | > 1000 nM | 6900 nM | 410 nM | CNC(=O)c1ccc2cc(C(C)(O)c3cncn3C)ccc2c1 (racemic) | –
100 nM | > 1000 nM | > 10000 nM | 290 nM | O=C(NC1CC1)c1ccc2cc(C3(O)CCn4cncc43)ccc2c1 (racemic) | –
48 nM | > 1000 nM | – | – | CNC(=O)c1ccc2cc([C@@]3(O)CCn4cncc43)ccc2c1 [ORTERONEL] | Activity [9]: 7.6%; IC50 [10]: 28000 nM; Activity [11]: 32.8%; Activity [12]: 61.1%; Activity [13]: 14.2%; Activity [14]: 55.6%; Activity [15]: 75.9%; Activity [16]: 12%; IC50 [17]: > 30000 nM; Activity [18]: 30%; IC50 [19]: > 30000 nM
